Assay results as given in patent US11254652B2, “Crystalline forms of N-(4-(4-(cyclopropymethyl)piperazine-1-carbonyl)phenyl)quinoline-8-sulfonamide” (Agios Pharmaceuticals, Inc., priority 2017, dated 2022).
Read-outs that look alike come from different tables or passages of the source.

Experiments:
[1] = Stability study of Form A under temperature/RH storage; type: physicochemical
[2] = Solubility measurements by gravimetric method in solvents at 23° C. and 50° C.; type: physicochemical; conditions: for solubility at 2 days: thermodynamic from solid
Experimental: Solubility measurements were done by gravimetric method in 20 different solvents at two temperatures (23° C. and 50° C.). About 20-30 mg of Form A, the synthesis of which is described below, was weighed and 0.75 mL solvent was added to form a slurry. The slurry was then stirred for two days at the specified temperature. The vial was centrifuged and the supernatant was collected for solubility measurement through gravimetric method. The saturated supernatant was transferred into pre-weighed 2 mL HPLC vials and weighed again (vial+liquid). The uncapped vial was then left on a 50° C. hot plate to slowly evaporate the solvent overnight. The vials were then left in the oven at 50° C. and under vacuum to remove the residual solvent so that only the dissolved solid remained. The vial was then weighed (vial+solid). From these three weights; vial, vial+liquid and vial+solid; the weight of dissolved solid and the solvent were calculated. Then using solvent density the solubility was calculated as mg solid/mL of solvent.
20-30 mg of Form A was weighed into 2 mL vial and 500 μL MeOH solvent system as outlined in the table was added. If dissolved, more solids were added to form the slurry. The slurries were then stirred for two days. The vials were centrifuged and the supernatant was collected for solubility measurement through gravimetric method by evaporation at 50° C. XRPD analysis was conducted on the solid after filtration of the slurries.
For the sake of comparison, the solubility of Compound 1, i.e., the non-crystalline freebase, was also measured in two solvent systems to see the effect of water.

In the case of O=C(c1ccc(NS(=O)(=O)c2cccc3cccnc23)cc1)N1CCN(CC2CC2)CC1 [Form A, 1-(cyclopropylmethyl)-4-(4-(quinoline-8-sulfonamido)benzoyl)piperazin-1-ium hemisulfate sesquihydrate], the “degradation in stability study” value ([1]; one month under 40±2° C./75±5% RH) was “No degradation”, the “degradation in stability study” value ([1]; three months at 30±2° C./65±5% RH) was “No degradation” and the “degradation in stability study” value ([1]; three months under 25±2° C./60±5% RH) was “No degradation”. The “degradation in stability study” value ([1]; three months under 40±2° C./75% RH) was “No degradation”, the “degradation in stability study” value ([1]; twelve months under 25±2° C./60±5% RH) was “No degradation” and the solubility at 2 days ([2]; DCM, 23 °C, organic solvent or mixture, DCM, 23° C., read-out: Solubility) was 2000 µg/mL. It also gave a Solubility ([2]; EtOAc, 23° C.) of 0 mg solid/mL solvent, a solubility at 2 days ([2]; EtOAc, 50 °C, organic solvent or mixture, EtOAc, 50° C., read-out: Solubility) of 2000 µg/mL and a solubility at 2 days ([2]; EtOAc:MeOH (1:1) and 5 vol % water, 23 °C, organic solvent or mixture, EtOAc:MeOH (1:1) and 5 vol % water, 23° C., read-out: Solubility) of 3000 µg/mL. The solubility at 2 days ([2]; EtOAc:MeOH (1:1) and 5 vol % water, 50 °C, organic solvent or mixture, EtOAc:MeOH (1:1) and 5 vol % water, 50° C., read-out: Solubility) was 12000 µg/mL, the solubility at 2 days ([2]; EtOAc:MeOH (1:1), 23 °C, organic solvent or mixture, EtOAc:MeOH (1:1), 23° C., read-out: Solubility) was 21000 µg/mL and the solubility at 2 days ([2]; EtOAc:MeOH (1:1), 50 °C, organic solvent or mixture, EtOAc:MeOH (1:1), 50° C., read-out: Solubility) was 240000 µg/mL. For the same molecule, the solubility at 2 days ([2]; EtOAc:MeOH (1:9), 23 °C, organic solvent or mixture, EtOAc:MeOH (1:9), 23° C., read-out: Solubility) was 359000 µg/mL, the solubility at 2 days ([2]; EtOAc:MeOH (1:9), 50 °C, organic solvent or mixture, EtOAc:MeOH (1:9), 50° C., read-out: Solubility) was 531000 µg/mL and the Solubility ([2]; EtOAc:MeOH (9:1), 23° C.) was 0 mg solid/mL solvent. The solubility at 2 days ([2]; EtOAc:MeOH (9:1), 50 °C, organic solvent or mixture, EtOAc:MeOH (9:1), 50° C., read-out: Solubility) was 9000 µg/mL, the Solubility ([2]; EtOH, 23° C.) was 0 mg solid/mL solvent and the solubility at 2 days ([2]; EtOH, 50 °C, organic solvent or mixture, EtOH, 50° C., read-out: Solubility) was 1000 µg/mL. The solubility at 2 days ([2]; EtOH:MeOH (1:1), 23 °C, organic solvent or mixture, EtOH:MeOH (1:1), 23° C., read-out: Solubility) was 2000 µg/mL, the solubility at 2 days ([2]; EtOH:MeOH (1:1), 50 °C, organic solvent or mixture, EtOH:MeOH (1:1), 50° C., read-out: Solubility) was 11000 µg/mL and the Solubility ([2]; IPA, 23° C.) was 0 mg solid/mL solvent. It also gave a solubility at 2 days ([2]; IPA, 50 °C, organic solvent or mixture, IPA, 50° C., read-out: Solubility) of 2000 µg/mL, a solubility at 2 days ([2]; IPA:DMSO (8:2), 23 °C, organic solvent or mixture, IPA:DMSO (8:2), 23° C., read-out: Solubility) of 11000 µg/mL and a solubility at 2 days ([2]; IPA:DMSO (8:2), 50 °C, organic solvent or mixture, IPA:DMSO (8:2), 50° C., read-out: Solubility) of 28000 µg/mL. The solubility at 2 days ([2]; IPA:DMSO:water (70:20:10), 23 °C, organic solvent or mixture, IPA:DMSO:water (70:20:10), 23° C., read-out: Solubility) was 1000 µg/mL, the solubility at 2 days ([2]; IPA:DMSO:water (70:20:10), 50 °C, organic solvent or mixture, IPA:DMSO:water (70:20:10), 50° C., read-out: Solubility) was 8000 µg/mL and the solubility at 2 days ([2]; IPA:DMSO:water (70:25:5), 23 °C, organic solvent or mixture, IPA:DMSO:water (70:25:5), 23° C., read-out: Solubility) was 2000 µg/mL. The solubility at 2 days ([2]; IPA:DMSO:water (70:25:5), 50 °C, organic solvent or mixture, IPA:DMSO:water (70:25:5), 50° C., read-out: Solubility) was 9000 µg/mL, the solubility at 2 days ([2]; IPA:DMSO:water (80:18:2), 23 °C, organic solvent or mixture, IPA:DMSO:water (80:18:2), 23° C., read-out: Solubility) was 1000 µg/mL and the solubility at 2 days ([2]; IPA:DMSO:water (80:18:2), 50 °C, organic solvent or mixture, IPA:DMSO:water (80:18:2), 50° C., read-out: Solubility) was 6000 µg/mL. For the same molecule, the Solubility ([2]; IPAc, 23° C.) was 0 mg solid/mL solvent, the solubility at 2 days ([2]; IPAc, 50 °C, organic solvent or mixture, IPAc, 50° C., read-out: Solubility) was 1000 µg/mL and the Solubility ([2]; MEK:water (20:1), 23° C.) was 0 mg solid/mL solvent. The solubility at 2 days ([2]; MEK:water (20:1), 50 °C, organic solvent or mixture, MEK:water (20:1), 50° C., read-out: Solubility) was 2000 µg/mL, the solubility at 2 days ([2]; MeOAc:MeOH (1:1) and 1 vol % water, 23 °C, organic solvent or mixture, MeOAc:MeOH (1:1) and 1 vol % water, 23° C., read-out: Solubility) was 118000 µg/mL and the solubility at 2 days ([2]; MeOAc:MeOH (1:1) and 1 vol % water, 50 °C, organic solvent or mixture, MeOAc:MeOH (1:1) and 1 vol % water, 50° C., read-out: Solubility) was 236000 µg/mL. The solubility at 2 days ([2]; MeOAc:MeOH (1:1) and 2.5 vol % water, 23 °C, organic solvent or mixture, MeOAc:MeOH (1:1) and 2.5 vol % water, 23° C., read-out: Solubility) was 39000 µg/mL, the solubility at 2 days ([2]; MeOAc:MeOH (1:1) and 2.5 vol % water, 50 °C, organic solvent or mixture, MeOAc:MeOH (1:1) and 2.5 vol % water, 50° C., read-out: Solubility) was 143000 µg/mL and the solubility at 2 days ([2]; MeOAc:MeOH (1:1) and 5 vol % water, 23 °C, organic solvent or mixture, MeOAc:MeOH (1:1) and 5 vol % water, 23° C., read-out: Solubility) was 5000 µg/mL. For the same molecule, the solubility at 2 days ([2]; MeOAc:MeOH (1:1) and 5 vol % water, 50 °C, organic solvent or mixture, MeOAc:MeOH (1:1) and 5 vol % water, 50° C., read-out: Solubility) was 26000 µg/mL, the solubility at 2 days ([2]; MeOAc:MeOH (1:1), 23 °C, organic solvent or mixture, MeOAc:MeOH (1:1), 23° C., read-out: Solubility) was 208000 µg/mL and the solubility at 2 days ([2]; MeOAc:MeOH (1:1), 50 °C, organic solvent or mixture, MeOAc:MeOH (1:1), 50° C., read-out: Solubility) was 340000 µg/mL. For the same molecule, the solubility at 2 days ([2]; MeOH, 23 °C, organic solvent or mixture, MeOH, 23° C., 2 days slurry, read-out: Solubility) was 393000 µg/mL, the solubility at 2 days ([2]; MeOH, 50 °C, organic solvent or mixture, MeOH, 50° C., 2 days slurry, read-out: Solubility) was over 765000 µg/mL and the solubility at 2 days ([2]; MeOH:Water (1:1), 23 °C, aqueous with cosolvent or surfactant or cyclodextrin, MeOH:Water (1:1), 23° C., read-out: Solubility) was 7000 µg/mL. For the same molecule, the solubility at 2 days ([2]; MeOH:Water (1:1), 50 °C, aqueous with cosolvent or surfactant or cyclodextrin, MeOH:Water (1:1), 50° C., read-out: Solubility) was 27000 µg/mL, the solubility at 2 days ([2]; MeOH:water (1:1) system as printed, 0 vol % water, organic solvent or mixture, MeOH:water (1:1) system as printed, 0 vol % water, read-out: room temperature solubility) was 208000 µg/mL and the solubility at 2 days ([2]; MeOH:water (1:1) system as printed, 1% water, organic solvent or mixture, MeOH:water (1:1) system as printed, 1% water, read-out: room temperature solubility) was 118000 µg/mL. It also gave a solubility at 2 days ([2]; MeOH:water (1:1) system as printed, 2.5% water, organic solvent or mixture, MeOH:water (1:1) system as printed, 2.5% water, read-out: room temperature solubility) of 39000 µg/mL, a solubility at 2 days ([2]; MeOH:water (1:1) system as printed, 5% water, organic solvent or mixture, MeOH:water (1:1) system as printed, 5% water, read-out: room temperature solubility) of 5000 µg/mL and a solubility at 2 days ([2]; MeOH:water (8:2), 23 °C, organic solvent or mixture, MeOH:water (8:2), 23° C., read-out: Solubility) of 10000 µg/mL. For the same molecule, the solubility at 2 days ([2]; MeOH:water (8:2), 50 °C, organic solvent or mixture, MeOH:water (8:2), 50° C., read-out: Solubility) was 59000 µg/mL, the solubility at 2 days ([2]; MtBE, 23 °C, organic solvent or mixture, MtBE, 23° C., read-out: Solubility) was 1000 µg/mL and the solubility at 2 days ([2]; MtBE, 50 °C, organic solvent or mixture, MtBE, 50° C., read-out: Solubility) was 3000 µg/mL. It also gave a solubility at 2 days ([2]; THF, 23 °C, organic solvent or mixture, THF, 23° C., read-out: Solubility) of 2000 µg/mL, a solubility at 2 days ([2]; THF, 50 °C, organic solvent or mixture, THF, 50° C., read-out: Solubility) of 26000 µg/mL and a solubility at 2 days ([2]; THF:water (8:2), 23 °C, organic solvent or mixture, THF:water (8:2), 23° C., read-out: Solubility) of 14000 µg/mL. It also gave a solubility at 2 days ([2]; THF:water (8:2), 50 °C, organic solvent or mixture, THF:water (8:2), 50° C., read-out: Solubility) of 77000 µg/mL, a Solubility ([2]; Toluene, 23° C.) of 0 mg solid/mL solvent and a solubility at 2 days ([2]; Toluene:EtOH:water (10:5:0.5), 23 °C, organic solvent or mixture, Toluene:EtOH:water (10:5:0.5), 23° C., read-out: Solubility) of 1000 µg/mL. The solubility at 2 days ([2]; Toluene:EtOH:water (10:5:0.5), 50 °C, organic solvent or mixture, Toluene:EtOH:water (10:5:0.5), 50° C., read-out: Solubility) was 4000 µg/mL, the solubility at 2 days ([2]; acetone, 23 °C, organic solvent or mixture, Acetone, 23° C., read-out: Solubility) was 1000 µg/mL and the solubility at 2 days ([2]; acetone, 50 °C, organic solvent or mixture, Acetone, 50° C., read-out: Solubility) was 6000 µg/mL. For the same molecule, the solubility at 2 days ([2]; acetone:water (8:2), 23 °C, organic solvent or mixture, acetone:water (8:2), 23° C., read-out: Solubility) was 5000 µg/mL, the solubility at 2 days ([2]; acetone:water (8:2), 50 °C, organic solvent or mixture, acetone:water (8:2), 50° C., read-out: Solubility) was 16000 µg/mL and the solubility at 2 days ([2]; acetonitrile, 23 °C, organic solvent or mixture, Acetonitrile, 23° C., read-out: Solubility) was 4000 µg/mL. For the same molecule, the solubility at 2 days ([2]; acetonitrile, 50 °C, organic solvent or mixture, Acetonitrile, 50° C., read-out: Solubility) was 6000 µg/mL, the solubility at 2 days ([2]; cyclohexane, 23 °C, organic solvent or mixture, Cyclohexane, 23° C., read-out: Solubility) was 1000 µg/mL and the solubility at 2 days ([2]; cyclohexane, 50 °C, organic solvent or mixture, Cyclohexane, 50° C., read-out: Solubility) was 1000 µg/mL. For the same molecule, the “decrease of solubility on adding 5 vol % water” value ([2]; room temperature, 0 vs 5 vol % water) was 42 fold and the solubility at 2 days ([2]; toluene, 50 °C, organic solvent or mixture, Toluene, 50° C., read-out: Solubility) was 2000 µg/mL.
